According to US4401677A, “Enkephalinase inhibitors” (E. R. Squibb & Sons, Inc., priority 1981, dated 1983):

How the values were obtained:
[1] = biological target: T1, enkephalinase purified from membrane fractions of sheep corpus striatum (Ovis aries, UniProt A0ACI6S0K5); assay: inhibition of cleavage of [^3 H-Tyr^1, Leu^5 ]-enkephalin by purified enkephalinase (radiochromatographic method); format: biochemical; settings: 70 nM substrate, pH 7.0, 15 minutes at 37°; called I50
T1 sequence (A0ACI6S0K5 2-750): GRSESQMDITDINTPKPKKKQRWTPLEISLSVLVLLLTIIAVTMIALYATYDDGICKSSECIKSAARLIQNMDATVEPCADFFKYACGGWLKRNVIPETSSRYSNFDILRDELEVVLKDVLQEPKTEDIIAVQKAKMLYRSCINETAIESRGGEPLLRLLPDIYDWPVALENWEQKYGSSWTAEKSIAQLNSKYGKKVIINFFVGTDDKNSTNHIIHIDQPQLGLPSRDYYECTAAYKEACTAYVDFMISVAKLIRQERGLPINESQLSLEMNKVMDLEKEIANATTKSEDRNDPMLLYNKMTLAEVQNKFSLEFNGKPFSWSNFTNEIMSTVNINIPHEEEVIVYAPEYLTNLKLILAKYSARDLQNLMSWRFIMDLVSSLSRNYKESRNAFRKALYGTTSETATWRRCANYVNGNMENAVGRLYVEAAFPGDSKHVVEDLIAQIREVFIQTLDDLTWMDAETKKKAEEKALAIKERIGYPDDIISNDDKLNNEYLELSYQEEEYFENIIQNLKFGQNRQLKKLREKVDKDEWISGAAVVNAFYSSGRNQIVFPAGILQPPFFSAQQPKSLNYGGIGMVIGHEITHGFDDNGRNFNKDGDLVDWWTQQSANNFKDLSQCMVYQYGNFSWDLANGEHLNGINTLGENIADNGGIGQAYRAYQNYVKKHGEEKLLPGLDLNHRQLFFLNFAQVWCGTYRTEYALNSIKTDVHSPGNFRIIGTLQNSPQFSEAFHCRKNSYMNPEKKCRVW
Experimental: Frozen sheep striatia were homogenized in 20 volumes of 50 mM Tris (i.e., 2-amino-2-hydroxymethyl-1,3-propanediol)-hydrochloric acid buffer, pH 7.7, and centrifuged at 37,000×g. for 15 minutes. The sedimented material (membrane fraction), after being washed three times by resuspension and recentrifugation, was solubilized by stirring with half the original volume of 50 mM Tris-hydrochloric acid buffer, pH 7.7, containing 1% Triton X-100 (i.e., polyethylene glycol p-isooctylphenyl ether) nonionic detergent, followed by centrifugation for 2 hours at 37,000×g. […] Protein was eluted from the column with a one liter gradient of 0-0.4 M sodium chloride in the same buffer mixture, with 8.7 ml. fractions being collected.
Activity of the enzyme for purification and inhibitor studies was determined by the following radiochromatographic method. […] An aliquot of 0.01 ml. of acidified reaction mixture was spotted onto a Whatman LK 50 silica gel thin-layer chromatography plate along with the appropriate peptide standards. After development of the plate in a solvent composed of isopropanol:ethyl acetate:5% acetic acid (2:2:1), the spots corresponding to Tyr, Tyr-Gly, Tyr-Gly-Gly, and unreacted enkephalin (Tyr-Gly-Gly-Phe-Leu), as visualized with ninhydrin reaction, were scraped from the plate, and the incorporated radioactivity was counted in a liquid scintillation counter.

enkephalinase = settings: cited from earlier work

**Q.** With `CC(CS)C(=O)N[C@@H](CCCNC(=N)N)C(=O)O` (mixture of isomers) [Ex. 1, N-(DL-3-Mercapto-2-methyl-1-oxopropyl)-L-arginine] as the molecule, how does the IC50 [1] read?
**A.** 150 nM

**Q.** For `CC(C)CC(CS)C(=O)N[C@@H](CCCNC(=N)N)C(=O)O` (mixture of isomers) [Ex. 7, (±)-N^2-[2-(Mercaptomethyl)-4-methyl-1-oxopentyl]-L-arginine], which IC50 [1] is on record?
**A.** 30 nM

**Q.** For `N=C(N)NCCC[C@H](NC(=O)C(CS)Cc1ccccc1)C(=O)O` (mixture of isomers) [Ex. 2, N-[DL-2-(Mercaptomethyl)-1-oxo-3-phenylpropyl]-L-arginine], which IC50 [1] is on record?
**A.** 85 nM

**Q.** Which IC50 [1] does the source give for `C[C@H](CS)C(=O)N[C@@H](Cc1ccc(O)c(O)c1)C(=O)O` [Ex. 6, 3-Hydroxy-N-(D-3-mercapto-2-methyl-1-oxopropyl)-L-tyrosine] here?
**A.** 2.5 nM

**Q.** Which IC50 [1] does the source give for `CC(CS)C(=O)N[C@@H](Cc1ccc(O)c(O)c1)C(=O)O` (mixture of isomers) [Ex. 5, 3-Hydroxy-N-(DL-3-mercapto-2-methyl-1-oxopropyl)-L-tyrosine] here?
**A.** 5 nM

**Q.** With `O=C(O)CNC(=O)C(CS)Cc1ccccc1` (racemic) [thiorphan, [(DL-3-mercapto-2-benzylpropanoyl)]-glycine] as the molecule, how does the “inhibitor of enkephalinase in vitro” value (enkephalinase) read?
**A.** inhibitor of enkephalinase in vitro in nanomolar concentration

**Q.** With `CC(CS)C(=O)N[C@@H](Cc1ccc(O)cc1)C(=O)O` (mixture of isomers) [Ex. 4, N-(DL-3-Mercapto-2-methyl-1-oxopropyl)-L-tyrosine] as the molecule, how does the IC50 [1] read?
**A.** 2.5 nM

**Q.** For `CC(CS)C(=O)N[C@@H](Cc1c[nH]c2ccccc12)C(=O)O` (mixture of isomers) [Ex. 3, N-(DL-3-Mercapto-2-methyl-1-oxopropyl)-L-tryptophan], which IC50 [1] is on record?
**A.** 5 nM
